Experiments:
Experiment in all cases: relative viability (nuclei count vs DMSO), 5 days (fraction); higher = more cells survive
[1] = compound: Cc1ccc(C(=O)N(CCCN)[C@@H](c2nc3cc(Cl)ccc3c(=O)n2Cc2ccccc2)C(C)C)cc1 [Ispinesib] + O=C(CCCCCCC(=O)Nc1ccccc1)NO [Vorinostat] (partner 1 µM)
Summary of the method: (§1)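 Lung cancer cell lines in 1536-well plates got either a single drug or a fixed anchor-drug dose together with five library-drug doses (not always all listed) in √10 steps, by pin tool, on the day after seeding. Nuclei were counted after 5 days, and relative viability is the treated-to-vehicle ratio of nuclei counts. Values are medians of duplicate plates.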

[2] = compound: Cc1ccc(C(=O)N(CCCN)[C@@H](c2nc3cc(Cl)ccc3c(=O)n2Cc2ccccc2)C(C)C)cc1 [Ispinesib] + Nc1nc2[nH]cc(CCc3ccc(C(=O)N[C@@H](CCC(=O)O)C(=O)O)cc3)c2c(=O)[nH]1 [Pemetrexed] (partner 0.2 µM)
Summary of the method: as §1

[3] = compound: C[C@]1(O)C[C@@H](c2nc(-c3ccc4ccc(-c5ccccc5)nc4c3)c3c(N)nccn32)C1 [Linsitinib] + Cc1nc(NC(=O)N2CCC[C@H]2C(N)=O)sc1-c1ccnc(C(C)(C)C(F)(F)F)c1 [Alpelisib] (partner 2 µM)
Summary of the method: as §1

[4] = compound: C[C@]1(O)C[C@@H](c2nc(-c3ccc4ccc(-c5ccccc5)nc4c3)c3c(N)nccn32)C1 [Linsitinib] + CC(=O)c1c(C)c2cnc(Nc3ccc(N4CCNCC4)cn3)nc2n(C2CCCC2)c1=O [Palbociclib] (partner 0.5 µM)
Summary of the method: as §1

Q: What does the source list for NCI-H1755?
A: relative viability ([1]; first compound 0.001 µM): 0.726; relative viability ([1]; first compound 0.003162 µM): 0.789; relative viability ([1]; first compound 0.01 µM): 0.937; relative viability ([1]; first compound 0.03162 µM): 0.636; relative viability ([1]; first compound 0.1 µM): 0.419; relative viability ([2]; first compound 0.001 µM): 0.486; relative viability ([2]; first compound 0.003162 µM): 0.439; relative viability ([2]; first compound 0.01 µM): 0.435; relative viability ([2]; first compound 0.03162 µM): 0.496; relative viability ([2]; first compound 0.1 µM): 0.325; relative viability ([3]; first compound 0.01 µM): 0.938; relative viability ([3]; first compound 0.03162 µM): 0.875; relative viability ([3]; first compound 0.1 µM): 0.961; relative viability ([3]; first compound 0.3162 µM): 0.78; relative viability ([3]; first compound 1 µM): 0.896; relative viability ([4]; first compound 0.01 µM): 0.475; relative viability ([4]; first compound 0.03162 µM): 0.48; relative viability ([4]; first compound 0.1 µM): 0.467; relative viability ([4]; first compound 0.3162 µM): 0.345; relative viability ([4]; first compound 1 µM): 0.444

Q: Which results are given for NCI-H2228?
A: relative viability ([1]; first compound 0.001 µM): 0.742; relative viability ([1]; first compound 0.003162 µM): 0.786; relative viability ([1]; first compound 0.01 µM): 0.722; relative viability ([1]; first compound 0.03162 µM): 0.341; relative viability ([1]; first compound 0.1 µM): 0.242; relative viability ([2]; first compound 0.001 µM): 0.375; relative viability ([2]; first compound 0.003162 µM): 0.293; relative viability ([2]; first compound 0.01 µM): 0.424; relative viability ([2]; first compound 0.03162 µM): 0.303; relative viability ([2]; first compound 0.1 µM): 0.201; relative viability ([3]; first compound 0.01 µM): 0.594; relative viability ([3]; first compound 0.03162 µM): 0.746; relative viability ([3]; first compound 0.1 µM): 0.723; relative viability ([3]; first compound 0.3162 µM): 0.493; relative viability ([3]; first compound 1 µM): 0.586; relative viability ([4]; first compound 0.01 µM): 0.809; relative viability ([4]; first compound 0.03162 µM): 0.62; relative viability ([4]; first compound 0.1 µM): 0.619; relative viability ([4]; first compound 0.3162 µM): 0.546; relative viability ([4]; first compound 1 µM): 0.513

Q: Which results are given for NCI-H1915?
A: relative viability ([1]; first compound 0.001 µM): 0.532; relative viability ([1]; first compound 0.003162 µM): 0.539; relative viability ([1]; first compound 0.01 µM): 0.525; relative viability ([1]; first compound 0.03162 µM): 0.238; relative viability ([1]; first compound 0.1 µM): 0.101; relative viability ([2]; first compound 0.001 µM): 0.518; relative viability ([2]; first compound 0.003162 µM): 0.528; relative viability ([2]; first compound 0.01 µM): 0.516; relative viability ([2]; first compound 0.03162 µM): 0.294; relative viability ([2]; first compound 0.1 µM): 0.113; relative viability ([3]; first compound 0.01 µM): 1.08; relative viability ([3]; first compound 0.03162 µM): 1.15; relative viability ([3]; first compound 0.1 µM): 1.14; relative viability ([3]; first compound 0.3162 µM): 0.913; relative viability ([3]; first compound 1 µM): 0.878; relative viability ([4]; first compound 0.01 µM): 0.514; relative viability ([4]; first compound 0.03162 µM): 0.595; relative viability ([4]; first compound 0.1 µM): 0.473; relative viability ([4]; first compound 0.3162 µM): 0.489; relative viability ([4]; first compound 1 µM): 0.307

Q: Which results are given for NCI-H2347?
A: relative viability ([1]; first compound 0.001 µM): 0.562; relative viability ([1]; first compound 0.003162 µM): 0.617; relative viability ([1]; first compound 0.01 µM): 0.738; relative viability ([1]; first compound 0.03162 µM): 0.625; relative viability ([1]; first compound 0.1 µM): 0.471; relative viability ([2]; first compound 0.001 µM): 0.47; relative viability ([2]; first compound 0.003162 µM): 0.432; relative viability ([2]; first compound 0.01 µM): 0.433; relative viability ([2]; first compound 0.03162 µM): 0.41; relative viability ([2]; first compound 0.1 µM): 0.425; relative viability ([3]; first compound 0.01 µM): 1.01; relative viability ([3]; first compound 0.03162 µM): 1.21; relative viability ([3]; first compound 0.1 µM): 1.01; relative viability ([3]; first compound 0.3162 µM): 0.595; relative viability ([3]; first compound 1 µM): 0.902; relative viability ([4]; first compound 0.01 µM): 0.372; relative viability ([4]; first compound 0.03162 µM): 0.498; relative viability ([4]; first compound 0.1 µM): 0.468; relative viability ([4]; first compound 0.3162 µM): 0.34; relative viability ([4]; first compound 1 µM): 0.399

Q: Which results are given for HARA?
A: relative viability ([1]; first compound 0.001 µM): 0.519; relative viability ([1]; first compound 0.003162 µM): 0.567; relative viability ([1]; first compound 0.01 µM): 0.528; relative viability ([1]; first compound 0.03162 µM): 0.477; relative viability ([1]; first compound 0.1 µM): 0.389; relative viability ([2]; first compound 0.001 µM): 0.278; relative viability ([2]; first compound 0.003162 µM): 0.203; relative viability ([2]; first compound 0.01 µM): 0.209; relative viability ([2]; first compound 0.03162 µM): 0.187; relative viability ([2]; first compound 0.1 µM): 0.171; relative viability ([3]; first compound 0.01 µM): 0.802; relative viability ([3]; first compound 0.03162 µM): 0.768; relative viability ([3]; first compound 0.1 µM): 0.732; relative viability ([3]; first compound 0.3162 µM): 0.409; relative viability ([3]; first compound 1 µM): 0.716; relative viability ([4]; first compound 0.01 µM): 0.276; relative viability ([4]; first compound 0.03162 µM): 0.274; relative viability ([4]; first compound 0.1 µM): 0.223; relative viability ([4]; first compound 0.3162 µM): 0.203; relative viability ([4]; first compound 1 µM): 0.268

Q: What does the source list for NCI-H2085?
A: relative viability ([1]; first compound 0.001 µM): 0.773; relative viability ([1]; first compound 0.003162 µM): 0.762; relative viability ([1]; first compound 0.01 µM): 0.864; relative viability ([1]; first compound 0.03162 µM): 0.594; relative viability ([1]; first compound 0.1 µM): 0.429; relative viability ([2]; first compound 0.001 µM): 0.946; relative viability ([2]; first compound 0.003162 µM): 0.905; relative viability ([2]; first compound 0.01 µM): 0.943; relative viability ([2]; first compound 0.03162 µM): 0.917; relative viability ([2]; first compound 0.1 µM): 0.361; relative viability ([3]; first compound 0.01 µM): 0.886; relative viability ([3]; first compound 0.03162 µM): 1.12; relative viability ([3]; first compound 0.1 µM): 1.06; relative viability ([3]; first compound 0.3162 µM): 0.888; relative viability ([3]; first compound 1 µM): 0.922; relative viability ([4]; first compound 0.01 µM): 0.434; relative viability ([4]; first compound 0.03162 µM): 0.465; relative viability ([4]; first compound 0.1 µM): 0.493; relative viability ([4]; first compound 0.3162 µM): 0.445; relative viability ([4]; first compound 1 µM): 0.478

Q: How did the relative viability ([1]; first compound 0.001 µM) turn out when NCI-H650 was run?
A: The relative viability was 0.508.

Q: What about the relative viability ([1]; first compound 0.003162 µM) of the same cell line?
A: The relative viability was 0.459.

Q: And the relative viability ([1]; first compound 0.01 µM)?
A: The relative viability was 0.475.

Q: And the relative viability ([1]; first compound 0.03162 µM)?
A: Its relative viability is 0.365.

Q: And the relative viability ([1]; first compound 0.1 µM)?
A: The relative viability was 0.199.

Q: And the relative viability ([2]; first compound 0.001 µM)?
A: Its relative viability is 1.1.

Q: And the relative viability ([2]; first compound 0.003162 µM)?
A: The relative viability was 1.02.

Q: What about the relative viability ([2]; first compound 0.01 µM) of the same cell line?
A: Its relative viability is 0.933.

Q: And the relative viability ([2]; first compound 0.03162 µM)?
A: The relative viability was 0.609.

Q: And the relative viability ([2]; first compound 0.1 µM)?
A: Its relative viability is 0.238.

Q: And the relative viability ([3]; first compound 0.01 µM)?
A: The relative viability was 1.34.

Q: What about the relative viability ([3]; first compound 0.03162 µM) of the same cell line?
A: Its relative viability is 1.23.

Q: What about the relative viability ([3]; first compound 0.1 µM) of the same cell line?
A: The relative viability was 1.02.

Q: What about the relative viability ([3]; first compound 1 µM) of the same cell line?
A: Its relative viability is 1.07.

Q: What about the relative viability ([4]; first compound 0.01 µM) of the same cell line?
A: The relative viability was 0.348.

Q: And the relative viability ([4]; first compound 0.03162 µM)?
A: Its relative viability is 0.364.

Q: What about the relative viability ([4]; first compound 0.1 µM) of the same cell line?
A: The relative viability was 0.339.

Q: And the relative viability ([4]; first compound 1 µM)?
A: The relative viability was 0.291.

Q: What does the source list for NCI-H1993?
A: relative viability ([1]; first compound 0.001 µM): 0.984; relative viability ([1]; first compound 0.003162 µM): 0.738; relative viability ([1]; first compound 0.01 µM): 0.74; relative viability ([1]; first compound 0.03162 µM): 0.515; relative viability ([1]; first compound 0.1 µM): 0.438; relative viability ([2]; first compound 0.001 µM): 0.652; relative viability ([2]; first compound 0.003162 µM): 0.677; relative viability ([2]; first compound 0.01 µM): 0.637; relative viability ([2]; first compound 0.03162 µM): 0.587; relative viability ([2]; first compound 0.1 µM): 0.404; relative viability ([3]; first compound 0.01 µM): 0.723; relative viability ([3]; first compound 0.03162 µM): 0.568; relative viability ([3]; first compound 0.1 µM): 0.701; relative viability ([3]; first compound 0.3162 µM): 0.75; relative viability ([3]; first compound 1 µM): 0.64; relative viability ([4]; first compound 0.01 µM): 0.646; relative viability ([4]; first compound 0.03162 µM): 0.668; relative viability ([4]; first compound 0.1 µM): 0.484; relative viability ([4]; first compound 0.3162 µM): 0.686; relative viability ([4]; first compound 1 µM): 0.456

From the supplement of paper PMC10307832
